# The source made the active and inactive calls.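 The calls were made as follows: active = blocks current through the Kir2.1 potassium channel at one or more tested doses and yields a dose response curve; inactive = no block at any dose, or no dose response.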
# Target: Inward rectifier potassium channel 2 (Mus musculus) (UniProt P35561)
# Test: mouse Kir2.1 channel inhibitors, SAR follow-up, cell-based, thallium flux, FluxOR (AID 504557)
# Conditions: Kir2.1 stable cells, FluxOR thallium flux fluorescence
# Sequence of Inward rectifier potassium channel 2 (Mus musculus) (P35561 whole entry, looked up): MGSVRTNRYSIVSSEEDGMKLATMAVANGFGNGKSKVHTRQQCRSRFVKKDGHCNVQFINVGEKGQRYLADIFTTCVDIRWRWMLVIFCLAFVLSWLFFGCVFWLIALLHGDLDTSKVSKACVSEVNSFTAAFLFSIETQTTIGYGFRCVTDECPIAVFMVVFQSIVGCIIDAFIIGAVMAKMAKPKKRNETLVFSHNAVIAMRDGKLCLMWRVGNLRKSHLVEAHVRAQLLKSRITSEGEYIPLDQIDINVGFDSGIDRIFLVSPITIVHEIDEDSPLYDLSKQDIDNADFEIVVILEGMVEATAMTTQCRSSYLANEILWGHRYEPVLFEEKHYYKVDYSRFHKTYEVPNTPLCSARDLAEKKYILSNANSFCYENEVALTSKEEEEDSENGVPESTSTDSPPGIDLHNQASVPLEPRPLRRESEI
row,IC50,SMILES
1,7.14 µM,C[C@H](NS(=O)(=O)c1ccc(Br)cc1)c1ccccc1
2,12.9 µM,C[C@H](NS(=O)(=O)c1ccccc1Br)c1ccccc1
3,7.59 µM,C[C@@H](NS(=O)(=O)c1cccc(Br)c1)c1ccccc1
4,4.74 µM,C[C@H](NS(C)(=O)=O)c1ccccc1
5,9.46 µM,Cc1ccc(S(=O)(=O)N[C@H](C)c2ccccc2)cc1
6,7.6 µM,Cc1noc(C)c1COC(=O)CCN1c2ccccc2Sc2ccccc21
7,4.9 µM,C[C@H](NS(=O)(=O)c1ccccc1)c1ccccc1
8,1.38 µM,Cc1ccc(C)c(OCCCNCc2ccccc2)c1
9,6.93 µM,CC(NS(=O)(=O)c1ccc(Br)cc1)c1ccccc1 (configuration not stated)
10,11.8 µM,c1ccc(COc2ccc(OCCCNC3CCCC3)cc2)cc1
11,11.7 µM,C[C@H](NS(=O)(=O)c1ccc(Cl)cc1)c1ccccc1
12,34.1 µM,C[C@H](NS(=O)(=O)c1cc(Cl)cc(Cl)c1O)c1ccccc1
13,13.4 µM,C[C@@H](NS(=O)(=O)c1ccc(Cl)cc1)c1ccccc1
14,13 µM,C[C@@H](NS(=O)(=O)c1ccccc1Br)c1ccccc1
15,7.57 µM,Cc1ccc(Nc2cc(C)nc3c(C)cccc23)cc1
16,25.3 µM,C[C@@H](NS(=O)(=O)c1ccc(Br)cc1)c1ccccc1
17,13.9 µM,Cc1ccc2nc(N3CCN(CCO)CC3)nc(-c3ccccc3)c2c1
18,13.3 µM,c1ccc(CNc2c3ccccc3nc3ccccc23)cc1
19,0.679 µM,CC(O)CNCCCOc1cccc(Oc2ccccc2)c1 (configuration not stated)
20,11 µM,C[C@H](NS(=O)(=O)c1cccc(Br)c1)c1ccccc1
21,13.6 µM,Cc1ccc2nc(NCc3ccccc3)[nH]c2c1
22,15.2 µM,Cc1ccc(S(=O)(=O)N[C@@H](C)c2ccccc2)cc1

# Same assay, conditions: Kir2.1 stable cells, FluxOR thallium flux fluorescence; at 71 µM (top of the series)
row,"activity change, negative = inhibition",SMILES
1,inactive,C[C@@H](NS(C)(=O)=O)c1ccccc1
2,inactive,C[C@@H](NS(=O)(=O)c1cc(Cl)cc(Cl)c1O)c1ccccc1
3,inactive,O=C(NCC1CCCCN1)c1cc(OCC(F)(F)F)ccc1OCC(F)(F)F (configuration not stated)
4,inactive,C[C@@H](NS(=O)(=O)c1ccccc1)c1ccccc1
5,inactive,O=S(=O)(c1ccc(F)cc1)N1CCCc2ccccc21
